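A five-concentration, 48-hour dose response in 96-well plates underlies each endpoint, interpolated linearly between surrounding concentrations. TGI is the concentration that stops growth completely.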
Key:
Assay in all cases: DTP human tumour cell line panel, 48 h
786-0 renal = test system: 786-0 renal
A498 renal = test system: A498 renal
A549 NSCLC = test system: A549 NSCLC
ACHN renal = test system: ACHN renal
BT-549 breast = test system: BT-549 breast
CAKI-1 renal = test system: CAKI-1 renal
CCRF-CEM leukemia = test system: CCRF-CEM leukemia
COLO 205 colon = test system: COLO 205 colon
DU-145 prostate = test system: DU-145 prostate
EKVX NSCLC = test system: EKVX NSCLC
HCT-116 colon = test system: HCT-116 colon
HCT-15 colon = test system: HCT-15 colon
HL-60(TB) leukemia = test system: HL-60(TB) leukemia
HOP-62 NSCLC = test system: HOP-62 NSCLC
HOP-92 NSCLC = test system: HOP-92 NSCLC
HS 578T breast = test system: HS 578T breast
HT29 colon = test system: HT29 colon
IGROV1 ovarian = test system: IGROV1 ovarian
K-562 leukemia = test system: K-562 leukemia
KM12 colon = test system: KM12 colon
LOX IMVI melanoma = test system: LOX IMVI melanoma
M14 melanoma = test system: M14 melanoma
MALME-3M melanoma = test system: MALME-3M melanoma
MCF7 breast = test system: MCF7 breast
MDA-MB-231 breast = test system: MDA-MB-231 breast
MDA-MB-435 = test system: MDA-MB-435
MDA-N = test system: MDA-N
MOLT-4 leukemia = test system: MOLT-4 leukemia
NCI-H226 lung = test system: NCI-H226 lung
NCI-H23 lung = test system: NCI-H23 lung
NCI-H522 lung = test system: NCI-H522 lung
NCI/ADR-RES ovarian = test system: NCI/ADR-RES ovarian
OVCAR-3 ovarian = test system: OVCAR-3 ovarian
OVCAR-4 ovarian = test system: OVCAR-4 ovarian
OVCAR-5 ovarian = test system: OVCAR-5 ovarian
OVCAR-8 ovarian = test system: OVCAR-8 ovarian
PC-3 prostate = test system: PC-3 prostate
RPMI-8226 leukemia = test system: RPMI-8226 leukemia
RXF 393 renal = test system: RXF 393 renal
SF-268 CNS = test system: SF-268 CNS
SF-295 CNS = test system: SF-295 CNS
SK-MEL-2 melanoma = test system: SK-MEL-2 melanoma
SK-MEL-28 melanoma = test system: SK-MEL-28 melanoma
SK-MEL-5 melanoma = test system: SK-MEL-5 melanoma
SK-OV-3 ovarian = test system: SK-OV-3 ovarian
SN12C renal = test system: SN12C renal
SNB-19 CNS = test system: SNB-19 CNS
SNB-75 CNS = test system: SNB-75 CNS
SR leukemia = test system: SR leukemia
SW-620 colon = test system: SW-620 colon
T-47D breast = test system: T-47D breast
TK-10 renal = test system: TK-10 renal
U251 CNS = test system: U251 CNS
UACC-257 melanoma = test system: UACC-257 melanoma
UACC-62 melanoma = test system: UACC-62 melanoma
UO-31 renal = test system: UO-31 renal
NCI-H460 lung = test system: NCI-H460 lung
SF-539 CNS = test system: SF-539 CNS
HCC-2998 colon = test system: HCC-2998 colon

Measured: TGI

O=C1c2cc([N+](=O)[O-])ccc2-c2ccc3c4ccc5c6c(ccc(c7ccc1c2c73)c64)C(=O)c1cc([N+](=O)[O-])ccc1-5
not listed: NCI-H460 lung | SF-539 CNS | HCC-2998 colon
> 100 µM: all other assays above

CN(Cc1cc(Cl)cc(Cl)c1O)Cc1c(O)ccc2ccccc12
73.1 µM: RPMI-8226 leukemia
46.4 µM: EKVX NSCLC
35.1 µM: NCI-H460 lung
58.3 µM: MOLT-4 leukemia
33.5 µM: NCI-H23 lung
35.8 µM: SK-MEL-2 melanoma
31.1 µM: TK-10 renal
68.2 µM: SR leukemia
44.4 µM: HS 578T breast
38.5 µM: SF-539 CNS
31 µM: A498 renal | ACHN renal
43.7 µM: SN12C renal
30.7 µM: PC-3 prostate
36.1 µM: SF-295 CNS
36.5 µM: HOP-92 NSCLC
> 100 µM: HT29 colon | SW-620 colon
37.9 µM: SNB-19 CNS
38.9 µM: HCT-15 colon | OVCAR-4 ovarian
48.4 µM: 786-0 renal
42.8 µM: KM12 colon
29.6 µM: NCI-H522 lung
33.6 µM: RXF 393 renal
33.8 µM: CAKI-1 renal
46.2 µM: DU-145 prostate
28.9 µM: MALME-3M melanoma
62.3 µM: A549 NSCLC
43 µM: T-47D breast
38.7 µM: HOP-62 NSCLC
37.3 µM: SK-MEL-28 melanoma
34.6 µM: UACC-257 melanoma
61 µM: K-562 leukemia
28.2 µM: SF-268 CNS
58.7 µM: HCT-116 colon
34.7 µM: UO-31 renal
33.9 µM: IGROV1 ovarian
66.1 µM: MDA-N
35.7 µM: OVCAR-3 ovarian
57.4 µM: HL-60(TB) leukemia
41.4 µM: MDA-MB-435
33.2 µM: MCF7 breast
32.8 µM: LOX IMVI melanoma
32 µM: BT-549 breast | COLO 205 colon | SK-MEL-5 melanoma
37.7 µM: NCI-H226 lung
33.3 µM: SNB-75 CNS
36.8 µM: SK-OV-3 ovarian
52.5 µM: OVCAR-5 ovarian
30.4 µM: U251 CNS
42.5 µM: NCI/ADR-RES ovarian
39.2 µM: M14 melanoma | OVCAR-8 ovarian
32.2 µM: MDA-MB-231 breast
29.3 µM: UACC-62 melanoma

C[N+](C)(C)CC(=O)N/N=C/c1ccncc1
not listed: HCC-2998 colon
> 100 µM: all other assays above

COc1cc(-c2[o+]c3cc(O)cc(O)c3cc2O)cc(O)c1O
46.3 µM: MCF7 breast
38.3 µM: MDA-MB-435
75.9 µM: CCRF-CEM leukemia
> 100 µM: all other assays above

Reference: PubChem BioAssay (NCI)
